Each compound was assayed against H3 receptor (UniProt Q9Y5N1) (assay: H3 Receptor Binding Assay). Settings: displacement of 3 nM [3H]R-α-methyl histamine or [3H]Nα-methyl histamine; membranes from guinea pig brain, alternatively recombinant human receptor in HEK-293 cells; 30° C., 30 minutes; read-out: H3 Ave Ki.
Procedure: The source of the H3 receptors in this experiment was guinea pig brain. Alternatively, the source of H3 receptors was recombinant human receptor, expressed in HEK-293 (human embryonic kidney) cells.
The animals weighed 400-600 g. The brain tissue was homogenized with a solution of 50 mM Tris, pH 7.5. The final concentration of tissue in the homogenization buffer was 10% w/v. The homogenates were centrifuged at 1,000×g for 10 minutes. in order to remove clumps of tissue and debris. The resulting supernatants were then centrifuged at 50,000×g for 20 minutes in order to sediment the membranes, which were next washed three times in homogenization buffer (50,000×g for 20 minutes. each). The membranes were frozen and stored at −70° C. until needed.
Compounds of the invention to be tested were dissolved in DMSO and then diluted into the binding buffer (50 mM Tris, pH 7.5) such that the final concentration was 2 μg/ml with 0.1% DMSO. Membranes were then added (400 μg of protein, 5 μg in the case of recombinant human receptor) to the reaction tubes. The reaction was started by the addition of 3 nM [^3H]R-α-methyl histamine (8.8 Ci/mmol) or 3 nM [^3H]N^α-methyl histamine (80 Ci/mmol) and continued under incubation at 30° C. for 30 minutes. Bound ligand was separated from unbound ligand by filtration, and the amount of radioactive ligand bound to the membranes was quantitated by liquid scintillation spectrometry. All incubations were performed in duplicate and the standard error was always less than 10%. Compounds that inhibited more than 70% of the specific binding of radioactive ligand to the receptor were serially diluted to determine a Ki (nM).
For `C[C@@H]1CCCN1CCc1cn2ccc(-c3ccc(F)nc3)cc2n1` [Compound 19], the Ki was 36.5 nM.
In the case of `C[C@@H]1CCCN1CCc1cn2cc(-c3ccc(=O)n(C)c3)ccc2n1` [Compound 22], the Ki is reported as 69 nM.
`C[C@@H]1CCCN1CCc1cn2cc(-c3ccc(C#N)cc3)ccc2n1` [Compound 2] was tested, and the Ki was 27 nM.
`COc1ccc(-c2ccc3nc(CCN4CCC[C@H]4C)cn3c2)cc1` [Compound 5] showed a Ki of 91.8 nM.
`C[C@@H]1CCCN1CCc1cn2cc(Br)ccc2n1` [Compound 1] gave a Ki of 327 nM.
Compound `C[C@@H]1CCCN1CCc1cn2cc(-n3ncccc3=O)ccc2n1` [Compound 3] has a Ki of 76.8 nM.
`C[C@@H]1CCCN1CCc1cn2cc(-c3cnc(N)cn3)ccc2n1` [Compound 25] gave a Ki of 246 nM.
In the case of `C[C@@H]1CCCN1CCc1cn2cc(-c3ccc4[nH]ccc4c3)ccc2n1` [Compound 21], the Ki is reported as 459 nM.
`C[C@@H]1CCCN1CCc1cn2cc(-c3cnc(N)c(C#N)c3)ccc2n1` [Compound 23] gave a Ki of 22 nM.
For `C[C@@H]1CCCN1CCc1cn2ccc(-c3ccc(C#N)cc3)cc2n1` [Compound 13], the Ki was 34 nM.
`C[C@@H]1CCCN1CCc1cn2cc(-c3cccc4ncccc34)ccc2n1` [Compound 20] showed a Ki of 104 nM.
`C[C@@H]1CCCN1CCc1cn2cc(-c3cncnc3)ccc2n1` [Compound 24] was tested, and the Ki was 366 nM.
`C[C@@H]1CCCN1CCc1cn2cc(-c3ccc(F)c(C#N)c3)ccc2n1` [Compound 16] showed a Ki of 4 nM.
In the case of `C[C@@H]1CCCN1CCc1cn2ccc(Br)cc2n1` [Compound 12], the Ki is reported as 101 nM.
In the case of `CC(=O)Nc1ccc(-c2ccc3nc(CCN4CCC[C@H]4C)cn3c2)cc1` [Compound 8], the Ki is reported as 67.5 nM.
`C[C@@H]1CCCN1CCc1cn2cc(-c3ccc(N(C)C)cc3)ccc2n1` [Compound 4] showed a Ki of 106 nM.
`C[C@@H]1CCCN1CCc1cn2cc(-c3ccc4ncccc4c3)ccc2n1` [Compound 17] was tested, and the Ki was 11.2 nM.
Work on `C[C@@H]1CCCN1CCc1cn2ccc(-c3ccccc3F)cc2n1` [Compound 15] yielded a Ki of 25 nM.
`C[C@@H]1CCCN1CCc1cn2cc(-c3cccc(C#N)c3)ccc2n1` [Compound 9] was tested, and the Ki was 13 nM.
`Cc1nnc2ccc(-c3ccc4nc(CCN5CCC[C@H]5C)cn4c3)cn12` [Compound 26] was tested, and the Ki was 7.1 nM.
`C[C@@H]1CCCN1CCc1cn2cc(-c3ccccc3F)ccc2n1` [Compound 11] was tested, and the Ki was 74 nM.
Work on `C[C@@H]1CCCN1CCc1cn2cc(-c3cncc(C#N)c3)ccc2n1` [Compound 18] yielded a Ki of 38.6 nM.
Work on `C[C@@H]1CCCN1CCc1cn2cc(-c3ccc(O)cc3)ccc2n1` [Compound 7] yielded a Ki of 64.5 nM.
In the case of `COc1ccccc1-c1ccc2nc(CCN3CCC[C@H]3C)cn2c1` [Compound 10], the Ki is reported as 163 nM.
`C[C@@H]1CCCN1CCc1cn2cc(-c3ccc(F)cc3)ccc2n1` [Compound 6] gave a Ki of 58.5 nM.
For `CCOc1cccc(-c2ccn3cc(CCN4CCC[C@H]4C)nc3c2)c1` [Compound 14], the Ki was 70 nM.

Source: patent US20120225885A1, “IMIDAZOLE DERIVATIVES AND METHODS OF USE THEREOF” (priority 2009, published 2012)
